Each structure is given as a SMILES string. Some results are limits rather than exact numbers.

Assay [1] deals with T1, M-phase inducer phosphatase 2 (Homo sapiens, UniProt P30305).
T1 sequence (P30305 whole entry): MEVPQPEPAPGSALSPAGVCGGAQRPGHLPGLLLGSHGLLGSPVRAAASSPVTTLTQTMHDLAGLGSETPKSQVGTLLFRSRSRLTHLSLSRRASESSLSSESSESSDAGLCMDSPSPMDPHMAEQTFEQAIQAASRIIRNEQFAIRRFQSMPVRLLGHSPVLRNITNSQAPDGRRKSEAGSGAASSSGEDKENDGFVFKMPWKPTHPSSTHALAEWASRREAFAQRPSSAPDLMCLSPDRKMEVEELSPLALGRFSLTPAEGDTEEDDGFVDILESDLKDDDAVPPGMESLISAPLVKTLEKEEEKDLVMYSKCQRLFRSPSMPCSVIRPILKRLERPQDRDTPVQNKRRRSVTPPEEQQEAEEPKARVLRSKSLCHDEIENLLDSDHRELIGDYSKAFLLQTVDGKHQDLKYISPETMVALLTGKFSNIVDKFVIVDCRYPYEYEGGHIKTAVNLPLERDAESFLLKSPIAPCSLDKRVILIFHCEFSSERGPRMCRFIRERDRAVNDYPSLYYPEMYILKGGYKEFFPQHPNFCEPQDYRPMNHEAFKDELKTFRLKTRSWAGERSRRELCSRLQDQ
The assay is described as follows: Inhibition of GST-fused Cdc25B.

Assay [2] addresses T2, M-phase inducer phosphatase 1 (Homo sapiens, UniProt P30304).
T2 sequence (P30304 whole entry): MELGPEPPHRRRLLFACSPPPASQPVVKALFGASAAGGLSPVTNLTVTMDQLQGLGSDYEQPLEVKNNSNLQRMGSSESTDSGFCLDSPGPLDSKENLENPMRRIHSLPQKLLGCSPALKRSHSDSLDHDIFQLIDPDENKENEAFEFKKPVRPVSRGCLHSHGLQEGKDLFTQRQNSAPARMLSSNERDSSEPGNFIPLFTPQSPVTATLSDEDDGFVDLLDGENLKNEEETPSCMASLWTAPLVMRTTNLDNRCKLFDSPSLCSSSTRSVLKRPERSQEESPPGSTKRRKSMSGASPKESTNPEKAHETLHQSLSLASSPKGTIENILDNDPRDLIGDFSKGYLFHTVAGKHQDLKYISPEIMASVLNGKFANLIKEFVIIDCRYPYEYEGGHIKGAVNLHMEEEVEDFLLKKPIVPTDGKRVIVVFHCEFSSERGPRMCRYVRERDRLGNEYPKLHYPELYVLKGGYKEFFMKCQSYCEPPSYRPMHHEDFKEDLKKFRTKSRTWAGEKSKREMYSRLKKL
The assay is described as follows: Inhibition of Cdc25A.

Assay [3] concerns the target T3, Tyrosine-protein phosphatase non-receptor type 1 (Homo sapiens, UniProt P18031).
T3 sequence (P18031 whole entry): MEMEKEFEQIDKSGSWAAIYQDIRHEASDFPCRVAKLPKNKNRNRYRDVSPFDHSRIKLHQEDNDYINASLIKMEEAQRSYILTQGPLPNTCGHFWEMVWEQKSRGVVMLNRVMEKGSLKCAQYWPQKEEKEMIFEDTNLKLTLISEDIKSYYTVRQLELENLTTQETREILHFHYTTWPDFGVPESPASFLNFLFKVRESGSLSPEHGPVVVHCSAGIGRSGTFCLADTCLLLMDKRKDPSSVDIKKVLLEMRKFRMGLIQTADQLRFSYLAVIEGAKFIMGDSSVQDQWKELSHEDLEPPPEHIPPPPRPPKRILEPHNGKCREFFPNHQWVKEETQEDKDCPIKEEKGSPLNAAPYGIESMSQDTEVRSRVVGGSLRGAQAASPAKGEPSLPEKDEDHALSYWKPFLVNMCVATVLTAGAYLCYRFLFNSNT
The assay is described as follows: Inhibition of PTP1B.

A short description of assay [4]: Inhibition of YOP. Also on record: species or system Yersinia.
Assay [5] has as its target T4, Tyrosine-protein phosphatase 1 (Saccharomyces cerevisiae S288c, UniProt P25044).
T4 sequence (P25044 whole entry): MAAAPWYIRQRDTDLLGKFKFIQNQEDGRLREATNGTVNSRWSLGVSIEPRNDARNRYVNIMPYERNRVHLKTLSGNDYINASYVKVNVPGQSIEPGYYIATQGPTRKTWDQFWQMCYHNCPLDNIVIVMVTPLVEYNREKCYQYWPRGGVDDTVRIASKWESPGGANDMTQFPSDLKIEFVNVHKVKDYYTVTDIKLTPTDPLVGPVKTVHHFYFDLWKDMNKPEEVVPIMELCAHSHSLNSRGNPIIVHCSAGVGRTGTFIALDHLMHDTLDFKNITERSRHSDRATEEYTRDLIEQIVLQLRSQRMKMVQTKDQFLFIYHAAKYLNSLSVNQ
The experiment in a line: Inhibition of YPTP1.

As usually defined, the IC50 is the concentration needed to halve the response being measured. Regarding `O=C(O)c1ccc2c(c1)C(=O)/C(=C/c1ccccc1)C2=O`, the values for the IC50 in assay [1] and in assay [2] were 8.6 µM and 13.3 µM, respectively.

For `O=C1C(Cl)=C(NC(Cc2ccccc2)C(=O)O)C(=O)c2ccccc21` (configuration not stated), the IC50 in assay [1] worked out at 3.8 µM; in assay [2], 3.5 µM.

As to `N#Cc1c(NS(=O)(=O)c2ccccc2)n(Cc2ccccc2)c2nc3ccccc3nc12`, the IC50 is 0.2 µM in assay [1]; more than 100 µM in assay [3]; more than 100 µM in assay [4]; more than 100 µM in assay [5]; 2.9 µM in assay [2].

Regarding `O=C(Nc1ccc(Cl)c(Cl)c1)Nc1ncc2c(n1)CC(c1ccco1)CC2=O` (configuration not stated), the results for the IC50 in assay [1] and in assay [2] were 13.7 µM and 17.8 µM, respectively.

Consider `O=S(=O)(Nc1cc2nc3ccccc3nc2n1Cc1ccccc1)c1ccccc1`, for which the IC50 was 0.21 µM in assay [1]; more than 100 µM in assay [3]; more than 100 µM in assay [4]; more than 100 µM in assay [5]; 2.1 µM in assay [2].

Take `N#Cc1c(N)n(Cc2ccc3c(c2)OCO3)c2nc3ccccc3nc12`: the IC50 in assay [1] was 9.1 µM; in assay [2] it was 5.5 µM.

On to `Nc1cccc(Nc2nc3ccccc3nc2NS(=O)(=O)c2ccc(Cl)cc2)c1`, for which the results for the IC50 in assay [1] and in assay [2] were 11.1 µM and 2.3 µM, respectively.

Regarding `O=C1C(Cl)=C(NCCc2ccc(F)cc2)C(=O)c2ccccc21`, the figures for the IC50 in assay [1] and in assay [2] were 9.5 µM and 3.9 µM, respectively.

Source of the values: ChEMBL document CHEMBL1153625, “Structure-based virtual screening approach to identify novel classes of Cdc25B phosphatase inhibitors” (Bioorg Med Chem Lett, 2009).
